According to patent US7323166B2, “Lactic acid bacteria cultures that inhibit food-borne pathogens” (Board of Regents University of Nebraska, priority 2002, dated 2008):

test system: cattle isolates; assay: Test of antibiotic resistance in cattle isolates towards various antibiotics (share of isolates per category); assay type: cell-based, lactic acid bacteria (LAB); conditions: share of the 19 cattle isolates
From the text: The following are examples of types of drugs that would be included in the three categories: Category I: quinolones, vancomycin, dalfopristin/quinupristin, third generation cephalosporins; Category II: ampicillin, first and second generation cephalosporins, erythromycin, trimethoprim/sulfamethoxazole; and Category III: inophores (monensin) and polymixins (Polymixin B and colistin). […] A commercial antimicrobial susceptibility test kit-Etest (AB Biodisk, North America Inc., Piscatway, N.J.) was used to determine the minimum inhibitory concentrations (MIC) of the antibiotics for the isolates selected. Etest strips containing a predefined exponential gradient of a particular antibiotic were applied to agar plates containing Mueller Hinton Agar (Difco) pre-inoculated with an overnight culture of the given bacteria (inoculum of 0.5 McFarland turbidity in 0.85% NaCl). The agar plates with the strips were immediately incubated at 37° C. for 16-20 hours, when bacterial growth became distinctly visible. After incubation, MIC values (μg/ml) were read where the inhibition ellipse (centered along the strip) intersected the scale at the edge of the strip. The susceptibility categorization of organisms towards a specific antibiotic was provided in the Etest antibiotic supplements for each agent and was used to examine the susceptibility of lactic acid bacteria (LAB) isolates. Based on the categorization, MIC for a particular organism was reported as susceptible (S), intermediate (I), or resistant (R). When growth occurred along the entire strip, i.e. no inhibition ellipse was seen, the MIC was reported as greater than (>H) the highest value on the reading scale.

`CC1(C)S[C@@H]2[C@H](NC(=O)[C@H](N)c3ccccc3)C(=O)N2[C@H]1C(=O)O` [AM, Ampicillin] and `CN(C)[C@@H]1C(O)=C(C(N)=O)C(=O)[C@@]2(O)C(O)=C3C(=O)c4c(O)cccc4[C@@](C)(O)[C@H]3C[C@@H]12` [TC, Tetracycline] are the same in “% Intermediate” value: 0.0% for the first, 0.0% for the second.

Compared with `CC[C@H]1OC(=O)[C@H](C)[C@@H](O[C@H]2C[C@@](C)(OC)[C@@H](O)[C@H](C)O2)[C@H](C)[C@@H](O[C@@H]2O[C@H](C)C[C@H](N(C)C)[C@H]2O)[C@](C)(O)C[C@@H](C)C(=O)[C@H](C)[C@@H](O)[C@]1(C)O` [EM, Erythromycin], `Cc1c(F)c(N2CCNC(C)C2)cc2c1c(=O)c(C(=O)O)cn2C1CC1` (stereo not shown) [GP, Grepafloxacin] is higher in “% Intermediate” value: 5.0% for the first, 10.0% for the second.

`C[C@H]1COc2c(N3CCN(C)CC3)c(F)cc3c(=O)c(C(=O)O)cn1c23` [LE, Levofloxacin] was tested, and the “% Intermediate” value was 37.0%.

Compared with `CC1(C)S[C@@H]2[C@H](NC(=O)[C@H](N)c3ccccc3)C(=O)N2[C@H]1C(=O)O` [AM, Ampicillin], `CN(C)[C@@H]1C(O)=C(C(N)=O)C(=O)[C@@]2(O)C(O)=C3C(=O)c4c(O)cccc4[C@@](C)(O)[C@H]3C[C@@H]12` [TC, Tetracycline] is higher in “% Resistant” value: 10.0% for the first, 31.0% for the second.

Compared with `CC[C@H]1OC(=O)[C@H](C)[C@@H](O[C@H]2C[C@@](C)(OC)[C@@H](O)[C@H](C)O2)[C@H](C)[C@@H](O[C@@H]2O[C@H](C)C[C@H](N(C)C)[C@H]2O)[C@](C)(O)C[C@@H](C)C(=O)[C@H](C)[C@@H](O)[C@]1(C)O` [EM, Erythromycin], `Cc1c(F)c(N2CCNC(C)C2)cc2c1c(=O)c(C(=O)O)cn2C1CC1` (stereo not shown) [GP, Grepafloxacin] is higher in “% Resistant” value: 21.0% for the first, 58.0% for the second.

`C[C@H]1COc2c(N3CCN(C)CC3)c(F)cc3c(=O)c(C(=O)O)cn1c23` [LE, Levofloxacin] was tested, and the “% Resistant” value was 5.0%.

Compared with `CC1(C)S[C@@H]2[C@H](NC(=O)[C@H](N)c3ccccc3)C(=O)N2[C@H]1C(=O)O` [AM, Ampicillin], `CN(C)[C@@H]1C(O)=C(C(N)=O)C(=O)[C@@]2(O)C(O)=C3C(=O)c4c(O)cccc4[C@@](C)(O)[C@H]3C[C@@H]12` [TC, Tetracycline] is lower in “% Susceptible” value: 90.0% for the first, 69.0% for the second.

Compared with `CC[C@H]1OC(=O)[C@H](C)[C@@H](O[C@H]2C[C@@](C)(OC)[C@@H](O)[C@H](C)O2)[C@H](C)[C@@H](O[C@@H]2O[C@H](C)C[C@H](N(C)C)[C@H]2O)[C@](C)(O)C[C@@H](C)C(=O)[C@H](C)[C@@H](O)[C@]1(C)O` [EM, Erythromycin], `Cc1c(F)c(N2CCNC(C)C2)cc2c1c(=O)c(C(=O)O)cn2C1CC1` (stereo not shown) [GP, Grepafloxacin] is lower in “% Susceptible” value: 74.0% for the first, 32.0% for the second.

With `C[C@H]1COc2c(N3CCN(C)CC3)c(F)cc3c(=O)c(C(=O)O)cn1c23` [LE, Levofloxacin] the “% Susceptible” value was 58.0%.

same assay, conditions: share of the 19 cattle isolates; listed as grepafloxacin

For `Cc1c(F)c(N2CCNC(C)C2)cc2c1c(=O)c(C(=O)O)cn2C1CC1` (stereo not shown) [GP, Grepafloxacin], the “% Resistant” value was 58%.
